From patent publication EP4043435A1, “COMPOUND FOR DETECTING SENESCENT CELLS AND USE THEREOF” (Universitat Politècnica de València, priority 2019, dated 2021)

Tests used:
4T1 cells [1] = assay: Confocal microscopy of fluorescence emission in control and Palbociclib-induced senescent cells; format: cell-based, mouse
Protocol: Mouse mammary carcinoma 4T1 cells were cultured in DMEM supplemented with 10 % FBS and incubated in 20 % O2 and 5 % CO2 at 37 °C. The cells were incubated with 5 µM of Palbociclib in DMEM for one week to induce the senescence process. Subsequently, the cells were seeded in a flat clear-bottom 96-well plate with a density of 6000 cells for senescent cells and 4000 in the control cells (without prior treatment with Palbociclib). After 24 hours, the cells were incubated with different concentrations of probe Cy7-Gal and its fluorophore (Cy7), with confocal microscopy images being acquired after 30 min of incubation. A more than 10-fold increase in fluorescence emission is observed between senescent cells treated with probe Cy7-Gal and untreated senescent cells (self-fluorescence signal).

4T1 cells [2] = assay: Viability assay (CellTiter-GLO Luminescent Cell Viability Assay) in control and senescent cells; format: cell-based, mouse; conditions: 4T1 control and senescent cells, different concentrations, 24 h of incubation
Protocol: Mouse mammary carcinoma 4T1 cells were cultured in DMEM supplemented with 10 % FBS and incubated in 20 % O2 and 5 % CO2 at 37 °C. To obtain cellular senescence, the cells were incubated with 5 µM of Palbociclib in DMEM for one week. Subsequently, the cells were seeded in a flat clear-bottom 96-well plate with a density of 6000 cells for senescent cells and 4000 in the control cells. After 24 h, the cells were treated with different concentrations of probe Cy7-Gal and its fluorophore (Cy7). Viability measurements were obtained after 24 h of incubation using CellTiter-GLO Luminescent Cell Viability Assay as a developer.

4T1 mammary tumours = assay: In vivo detection of senescence through urine and bladder fluorescence (IVIS and fluorescence spectroscopy) in mice bearing mammary tumours; design: species or system female BALB/cByJ mice
Protocol: Urine fluorescence measurements were carried out by taking 5 µl of urine and diluting it in distilled water to 100 µl. The samples were obtained by exciting at 535 nm and collecting the absorption maximum at 566 nm.
The Palbociclib was administered through an oral probe daily for 7 days at different concentrations of 10 mg / kg, 50 mg / kg and 100 mg / kg dissolved in 50 mM sodium lactate at pH 5 in order to induce senescence. […] The mice were monitored for 15 minutes post-injection of the probe in the IVIS® equipment following the accumulation of fluorophore Cy7 in the bladder after the hydrolysis of probe Cy7-Gal in the presence of senescent cells.

4T1 cell tumours = assay: Ex vivo IVIS fluorescence of extracted tumours and organs; format: in vivo, female BALB/cByJ mice; conditions: after sacrifice, different Palbociclib groups (FIG. 8d)
Protocol: The mice were kept in the Prince Phillip Research Centre (Centro de Investigación Príncipe Felipe (CIPF)) following the recommendations of the Federation of European Laboratory Animal Science Associations (FELASA). All the processes applied on the animals were approved by the Technical Research Committee for Animal Welfare (Comité Técnico de Investigación para el bienestar de los animals, CElyBA). 4T1 mammary tumours were generated using 4T1 cells: The cells were cultured in DMEM supplemented with 10 % FBS and penicillin-streptomycin. To generate the formation of mammary tumours, the cells were trypsinised and counted with a LUNA ™ automated cell counter and injected by subcutaneous route into the left mammary of 28- to 34-week-old female BALB/CBY mice at a concentration of […] in a volume of 100 µl. The volume of the tumour was measured every two days with a gauge and calculated as V = (a x b2) / 2, wherein a is the longest and b is the shortest of two perpendicular diameters. […] The mice were monitored for 15 minutes post-injection of the probe in the IVIS® equipment following the accumulation of fluorophore Cy7 in the bladder after the hydrolysis of probe Cy7-Gal in the presence of senescent cells. […] The measurement of fluorescence in organs and tumours for the different groups of mice was performed with the IVIS technique.

expulsion from the organism through urine (4T1 mammary tumours; female mice urinated after coming out from under anaesthesia, monitored 15 minutes post-injection): expelled from the organism
Structure (SMILES): CC(=O)OC[C@H]1O[C@@H](Oc2ccc(/C=C/C3=[N+](CCCCS(=O)(=O)[O-])c4ccccc4C3(C)C)cc2/C=C/C2=[N+](CCCCS(=O)(=O)[O-])c3ccccc3C2(C)C)[C@H](OC(C)=O)[C@@H](OC(C)=O)[C@H]1OC(C)=O [Cy7-Gal]
increase in fluorescence emission between senescent cells and control cells (4T1 cells [1]; both incubated in the presence of probe, compared with the more than 10-fold increase over untreated senescent cells, 30 min of incubation): slightly higher
increase in fluorescence emission (4T1 cells [1]; senescent 4T1 cells (5 µM Palbociclib, one week) treated with probe vs untreated senescent cells (self-fluorescence signal), 30 min of incubation): more than 10 fold
selectivity of the probe for detecting senescent cells (4T1 cells [1]; senescent vs control 4T1 cells): high selectivity
toxicity (viability) (4T1 cells [2]): minimum toxicity
fluorescence emission of the urine samples vs degree of cellular senescence (4T1 mammary tumours; mice with 4T1 tumours given Palbociclib 10, 50 or 100 mg/kg orally for 7 days, then probe 23.3 mg/ml in 100 µl, IVIS and fluorescence spectroscopy): correspondence between the fluorescence emission of the urine samples and the degree of cellular senescence
fluorescence signal in tumours and most representative organs (IVIS) (4T1 cell tumours): a signal is only observed in senescent tumours, and no signal is observed in the different organs
